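A five-concentration, 48-hour dose response in 96-well plates underlies each endpoint, interpolated linearly between surrounding concentrations. The concentration for 50% growth inhibition is given as GI50.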 Calls of active or inactive are those of the source. Cut-off read from the data, not from the text of the source: active = GI50 up to about 1.1 µM and inactive = higher.
Columns and labels:
Assay in all cases: DTP human tumour cell line panel, 48 h
ACHN = tested on: ACHN
COLO 205 = tested on: COLO 205
HCT-116 = tested on: HCT-116
HCT-15 = tested on: HCT-15
HOP-92 = tested on: HOP-92
HT-29 = tested on: HT-29
MDA-MB-435 = tested on: MDA-MB-435
MOLT-4 = tested on: MOLT-4
NCI-H522 = tested on: NCI-H522
OVCAR-3 = tested on: OVCAR-3
OVCAR-4 = tested on: OVCAR-4
OVCAR-8 = tested on: OVCAR-8
RPMI-8226 = tested on: RPMI-8226
SF-295 = tested on: SF-295
SK-MEL-28 = tested on: SK-MEL-28
SNB-19 = tested on: SNB-19
SW-620 = tested on: SW-620
T47D = tested on: T47D
TK-10 = tested on: TK-10
UACC-62 = tested on: UACC-62

| Compound | GI50 (ACHN) | GI50 (COLO 205) | GI50 (HCT-116) | GI50 (HCT-15) [µM] | GI50 (HOP-92) | GI50 (HT-29) | GI50 (MDA-MB-435) | GI50 (MOLT-4) | GI50 (NCI-H522) | GI50 (OVCAR-3) | GI50 (OVCAR-4) | GI50 (OVCAR-8) | GI50 (RPMI-8226) | GI50 (SF-295) | GI50 (SK-MEL-28) | GI50 (SNB-19) | GI50 (SW-620) | GI50 (T47D) | GI50 (TK-10) | GI50 (UACC-62) |
| --- | --- | --- | --- | --- | --- | --- | --- | --- | --- | --- | --- | --- | --- | --- | --- | --- | --- | --- | --- | --- |
| C[C@H]1CC[C@H](NC(=O)N(CCCl)N=O)CC1 | 49.4 µM (inactive) | 32.7 µM (inactive) | 39.6 µM (inactive) | 40.6 | 24.4 µM (inactive) | 51.2 µM (inactive) | 28.1 µM (inactive) | 18.3 µM (inactive) | 40 µM (inactive) | 42.1 µM (inactive) | 31.6 µM (inactive) | 53.2 µM (inactive) | 31.6 µM (inactive) | 13.4 µM (inactive) | 46.2 µM (inactive) | 38.7 µM (inactive) | 31.3 µM (inactive) | 29.7 µM (inactive) | 63.4 µM (inactive) | 14.3 µM (inactive) |
| CO[C@@]12C[C@@H](C)[C@]34O[C@H]3C[C@]3(C)O[C@]43CC1=C(C)C(=O)O2 | > 100 µM (inactive) | > 100 µM (inactive) | > 100 µM (inactive) | > 100 | > 100 µM (inactive) | > 100 µM (inactive) | > 100 µM (inactive) | < 0.01 µM (active) | > 100 µM (inactive) | > 100 µM (inactive) | > 100 µM (inactive) | > 100 µM (inactive) | > 100 µM (inactive) | > 100 µM (inactive) | > 100 µM (inactive) | > 100 µM (inactive) | > 100 µM (inactive) | > 100 µM (inactive) | > 100 µM (inactive) | > 100 µM (inactive) |
| C[C@@H]1CC[C@H]2C(C)(C)[C@H]3C[C@@]12CC[C@@]3(C)O [CEDROL] | > 100 µM (inactive) | > 100 µM (inactive) | > 100 µM (inactive) | 59.3 | 72.6 µM (inactive) | 36 µM (inactive) | 92.5 µM (inactive) | 35.5 µM (inactive) | 45.9 µM (inactive) | > 100 µM (inactive) | > 100 µM (inactive) | > 100 µM (inactive) | 24.6 µM (inactive) | > 100 µM (inactive) | 60 µM (inactive) | > 100 µM (inactive) | > 100 µM (inactive) | > 100 µM (inactive) | > 100 µM (inactive) | > 100 µM (inactive) |
| N#Cc1nc(Sc2cnsn2)c(Sc2cnsn2)nc1C#N | 7.1 µM (inactive) | 3.85 µM (inactive) | 6.65 µM (inactive) | 6.68 | 20 µM (inactive) | 20.6 µM (inactive) | 11.5 µM (inactive) | 2.65 µM (inactive) | 3.93 µM (inactive) | 6.79 µM (inactive) | 21.7 µM (inactive) | 24.5 µM (inactive) | 3.5 µM (inactive) | 16.6 µM (inactive) | 22.6 µM (inactive) | 30 µM (inactive) | 2.25 µM (inactive) | 6.25 µM (inactive) | 5.12 µM (inactive) | 17.6 µM (inactive) |
| CC1(C)OC([C@H](O)CO)C([C@H]2NCCS2)O1 (stereo not given in full) | > 100 µM (inactive) | > 100 µM (inactive) | > 100 µM (inactive) | > 100 | > 100 µM (inactive) | > 100 µM (inactive) | > 100 µM (inactive) | > 100 µM (inactive) | > 100 µM (inactive) | > 100 µM (inactive) | > 100 µM (inactive) | > 100 µM (inactive) | > 100 µM (inactive) | > 100 µM (inactive) | > 100 µM (inactive) | > 100 µM (inactive) | > 100 µM (inactive) | > 100 µM (inactive) | > 100 µM (inactive) | > 100 µM (inactive) |
| OCCCc1ccc2c(c1)[C@H](CO)[C@@H](c1ccc(O)cc1)O2 | > 100 µM (inactive) | > 100 µM (inactive) | > 100 µM (inactive) | > 100 | > 100 µM (inactive) | > 100 µM (inactive) | 69.3 µM (inactive) | 19.5 µM (inactive) | > 100 µM (inactive) | > 100 µM (inactive) | 16.8 µM (inactive) | > 100 µM (inactive) | 26 µM (inactive) | > 100 µM (inactive) | 36.4 µM (inactive) | > 100 µM (inactive) | > 100 µM (inactive) | 39.2 µM (inactive) | > 100 µM (inactive) | 51.9 µM (inactive) |
| CC(C)c1ccc(O)c(=O)c(O)c1.CC(C)c1ccc(O)c(=O)cc1.CC(C)c1cccc(=O)c(O)c1.CC(C)c1ccccc(=O)c1O | 0.47 µM (active) | 2.77 µM (inactive) | 0.373 µM (active) | 0.198 | 5.94 µM (inactive) | 0.509 µM (active) | 2.1 µM (inactive) | 0.343 µM (active) | 0.456 µM (active) | 0.279 µM (active) | 1.11 µM (active) | 0.604 µM (active) | 0.964 µM (active) | 1.23 µM (inactive) | 2.05 µM (inactive) | 3.4 µM (inactive) | 0.697 µM (active) | 1.88 µM (inactive) | 0.459 µM (active) | 0.787 µM (active) |
| O=C(O)c1c2c(cc3c1CC1(Cc4ccccc4C1=O)C3)CCC2 (stereo not given) | 57 µM (inactive) | 17.4 µM (inactive) | 21.6 µM (inactive) | 14.8 | 25.5 µM (inactive) | 14.8 µM (inactive) | 3.69 µM (inactive) | 11.4 µM (inactive) | 22.1 µM (inactive) | 26.1 µM (inactive) | 27.8 µM (inactive) | 44.9 µM (inactive) | 18.4 µM (inactive) | 38.6 µM (inactive) | 52 µM (inactive) | 47 µM (inactive) | 30.1 µM (inactive) | 32.5 µM (inactive) | > 66.7 µM (inactive) | 21.8 µM (inactive) |
| Cc1ccc2[nH]c3c(c2c1)C1CCC(C(C)(C)C)CC1C1C(=O)N(c2ccc4c(c2)OCO4)C(=O)C31 (stereo not given) | 1.87 µM (inactive) | 3.31 µM (inactive) | 2.34 µM (inactive) | 5.21 | 2.24 µM (inactive) | 4.51 µM (inactive) | 7.21 µM (inactive) | 1.81 µM (inactive) | 2.67 µM (inactive) | 1.52 µM (inactive) | 1.85 µM (inactive) | 1.97 µM (inactive) | 4.3 µM (inactive) | 3.11 µM (inactive) | 5.61 µM (inactive) | 2.64 µM (inactive) | 2.63 µM (inactive) | 2.06 µM (inactive) | 2.05 µM (inactive) | 10.8 µM (inactive) |
| COC12OC3CC4(C)C(=CC3OC(OC(C)C1O)C2O)CCC1C4CCC2(C)C(c3ccc(=O)oc3)CCC12O (stereo not given) | 0.00181 µM (active) | 0.00196 µM (active) | 0.00136 µM (active) | 0.00216 | 0.00535 µM (active) | 0.00139 µM (active) | 0.00216 µM (active) | 0.00105 µM (active) | < 0.001 µM (active) | 0.00155 µM (active) | 0.00126 µM (active) | 0.00144 µM (active) | 0.00177 µM (active) | 0.00176 µM (active) | 0.00385 µM (active) | 0.00213 µM (active) | 0.00178 µM (active) | 0.00227 µM (active) | 0.00122 µM (active) | 0.00233 µM (active) |
| CN(C)c1ccc(/C=C(\NC(=O)c2ccccc2)C(=O)NC(CC(=O)O)C(=O)O)cc1 (stereo not given) | > 100 µM (inactive) | > 100 µM (inactive) | > 100 µM (inactive) | > 100 | > 100 µM (inactive) | > 100 µM (inactive) | > 100 µM (inactive) | > 100 µM (inactive) | 17.7 µM (inactive) | 52.7 µM (inactive) | 53.2 µM (inactive) | 68.9 µM (inactive) | > 100 µM (inactive) | > 100 µM (inactive) | > 100 µM (inactive) | > 100 µM (inactive) | > 100 µM (inactive) | > 100 µM (inactive) | > 100 µM (inactive) | 82 µM (inactive) |
| FC(F)(F)c1ccc(/N=C/C=C(/Nc2ccc(C(F)(F)F)cc2)c2ccc(Cl)cc2)cc1 | 10.1 µM (inactive) | 10.5 µM (inactive) | 4.79 µM (inactive) | 4.73 | 16.5 µM (inactive) | 5.04 µM (inactive) | 6.82 µM (inactive) | 4.06 µM (inactive) | 11.1 µM (inactive) | 6.78 µM (inactive) | 14 µM (inactive) | 15.6 µM (inactive) | 4.72 µM (inactive) | 15.8 µM (inactive) | 15.1 µM (inactive) | 8.61 µM (inactive) | 11 µM (inactive) | 10.3 µM (inactive) | 15.8 µM (inactive) | 1.82 µM (inactive) |
| O=C(/C=C/c1ccco1)c1cccc(C(=O)/C=C/c2ccco2)n1 | 21.9 µM (inactive) | 23.6 µM (inactive) | 2.78 µM (inactive) | 4.92 | 32.9 µM (inactive) | 5.07 µM (inactive) | 48.5 µM (inactive) | 2.19 µM (inactive) | 3.9 µM (inactive) | 19.4 µM (inactive) | > 73.5 µM (inactive) | 2.69 µM (inactive) | 1.87 µM (inactive) | 40.1 µM (inactive) | 15.4 µM (inactive) | 8.41 µM (inactive) | 3.2 µM (inactive) | 6.17 µM (inactive) | 41.2 µM (inactive) | 27.8 µM (inactive) |
| O=C1Nc2ccccc2/C1=C/c1ccccc1 | 30.4 µM (inactive) | 16.8 µM (inactive) | 14 µM (inactive) | 14 | 11 µM (inactive) | 22.6 µM (inactive) | 15.8 µM (inactive) | 15.6 µM (inactive) | 15.8 µM (inactive) | 16.7 µM (inactive) | 23.6 µM (inactive) | 18.8 µM (inactive) | 18.2 µM (inactive) | 17.5 µM (inactive) | 20.8 µM (inactive) | 14.5 µM (inactive) | 25.2 µM (inactive) | 12.3 µM (inactive) | 21.7 µM (inactive) | 13.9 µM (inactive) |

Source: ChEMBL document CHEMBL1201862, “PubChem BioAssay data set” (2004)
